Data reported in US4691046A, “Butanedioic acid mono [(2-dimethylamino] ethyl ester)succinate” (Institut Organicheskoi Khimii Ordena Lenina I Ordena …, priority 1986, dated 1987).

What was measured:
[1] = test system: NAD-Ph--H2 --dehydrogenase; experiment: Activity of NAD-Ph-H2-dehydrogenase in myocardium upon low-temperature treatment; type: in vivo, mice; conditions: 2.5 hours at -14° C.; 80 mg/kg (invention) or 64 mg/kg (ester); control 72.1 ± 1.4
Experimental: (§2) The preparations were administered one hour before the standard low-temperature treatment (-14° C.) in doses of 80 mg/kg of the compound according to the present invention and 64 mg/kg of the prior art compound-butanedioic acid mono[(2-dimethylamino)-ethyl ester].

Glutamatedehydrogenase = experiment: Activity of glutamatedehydrogenase in myocardium upon low-temperature treatment; type: in vivo, mice; conditions: 2.5 hours at -14° C.; 80 mg/kg (invention) or 64 mg/kg (ester); control 68.8 ± 1.5
Experimental: as §2

[2] = test system: Glucose-6-phosphatedehydrogenase; experiment: Activity of glucose-6-phosphatedehydrogenase in myocardium upon low-temperature treatment; type: in vivo, mice; conditions: 2.5 hours at -14° C.; 80 mg/kg (invention) or 64 mg/kg (ester); control 57.3 ± 1.3
Experimental: as §2

[3] = Stresso-protective activity, motion stress in slowly rotating drum for 48 hours; type: in vivo, rats; conditions: 48 h motion stress
Experimental: In evaluation of the stresso-protective activity of the compound according to the present invention as a model use was made of a procedure of depriving rats of sleep, meals and water in a slowly rotating drum (at the speed of 0.2 km/h).
The experiments were carried out on 42 nondescript male rats. In parallel experiments the antistress activity of butanedioic acid mono[(2-dimethylamino)ethyl ester] was studied; as the reference prepartion use was made of the prior art tranquilizer--diazepam which was used in the experiments for this very indication.
4 groups of animals were tested in parallel. Groups I and II were placed for 48 hours into a slowly rotating drum, groups III and IV were under normal conditions and were deprived only of meals and water. The compound according to the present invention and butanedioic acid mono[(2-dimethylamino)ethyl ester] were administered intraperitoneally in the dose of 10 mg/kg four times (2 times a day) in the volume of 2.5 ml/kg under the conditions of motion stress (Group I of the animals) and under normal conditions (Group III of animals). The control animals--Group II (active control) and Group IV (passive control) were given a physiological solution. The efficiency of the compound according to the present invention, of butanedioic acid mono[(2-dimethylamino)ethyl ester] and of diazepam was estimated on the basis of a set of characteristics showing the functional activity of the central nervous system, physical fitness and development of basic symptoms of the stress-syndrome.
The residence of control rats in a slowly-rotating drum over 48 hours results in a noticeable deterioration of all the studied characteristics, especially those of higher nervous activity (learning) and development of stress-syndrome. The state of control animals was characterized by lowering of the overall behavioural activity as determined by the "open-field" test (37±15%) with reference to the passive control level, by a reduction in the speed of development of a conventional avoiding response in an aqueous labyrinth (58±15%), by an increase in the number of mistakes during the teaching time (175±25%), lowering of the ultimate physical endurance as determined by the swimming-with-load test (the load is equal to 10% by mass of the body (70±17%), adrenal hypertrophy (146±16%), thymus atrophy (49±9%) and formation of ulcers on the stomach mucous membrane (5.25±1.0%).

[4] = Biochemical substrates in mice upon preset (2.5 hours) low-temperature treatment; conditions: 2.5 hours at -14° C., 1 hour after 80 mg/kg (invention) or 64 mg/kg (ester)
Experimental: as §2

Pyruvatedehydrogenase = experiment: Activity of pyruvatedehydrogenase in myocardium upon low-temperature treatment; type: in vivo, mice; conditions: 2.5 hours at -14° C.; 80 mg/kg (invention) or 64 mg/kg (ester); control 56.6 ± 1.1
Experimental: as §2

Isocitratedehydrogenase = experiment: Activity of isocitratedehydrogenase in myocardium upon low-temperature treatment; type: in vivo, mice; conditions: 2.5 hours at -14° C.; 80 mg/kg (invention) or 64 mg/kg (ester); control 49.5 ± 1.2
Experimental: as §2

[5] = Survival of mice on acute cooling; type: in vivo; conditions: i.p. 1 hour before, 80 mg/kg (invention), 64 mg/kg (ester), 17 mg/kg (sodium succinate)
Experimental: The activity of the compound according to the present invention was studied in experiments on animals. The effectivemess of the compound according to the present invention was studied for resistance against an acute cold effect in comparison with conventional preparations such as butanedioic acid mono[(2-dimethylamino)ethyl ester] and sodium succinate.
The experiments were carried out on male mice (tetrahybdrids) with a body mass of 18-20 g which were placed into a cold chamber at a temperature of -15t to -17° C. in separate plastic cages slightly limiting their activity. […] The preparations were administered intraperiotoneally 1 hour before the cold effect the control animals were administered with a physiological solution.

[6] = Maximum duration of mice lifespan upon testing cold treatment (Le Blanc adaptation procedure); type: in vivo; conditions: with preliminary adaptation; 80 mg/kg (invention) or 64 mg/kg (ester); adaptation alone 6.0 ± 0.3
Experimental: (§1) To elucidate the effect of the compound according to the present invention on the adaptation phenomenon, experiments on male mice with a body mass of 18-20 g were carried out in conformity with the Le Blanc procedure according to which the mice were placed into a cold chamber (at -17° C.) for 10 minutes ever hour over the period of 9-10 hours. After one day the maximum lifespan of the mice at -17° C. was assessed along with the content of glucose in blood and of glycogen in organs upon a predetermined cold treatment (2.5 hours a -14° C.). The compound according to the present invention and butanedioic acid mono[(2-dimethylamino)-ethyl ester] (in doses of 80 and 64 mg/kg respectively) were introduced immediately after a series of short-time cold effects. In a number of experiments the compound according to the present invention was administered 1 hour prior to the testing (2.5 h) cold effect.

[7] = Blood glucose and organ glycogen upon predetermined (2.5 h) cold treatment (adaptation experiment); type: in vivo, mice; conditions: adaptation + preparation immediately after adaptation, 80 mg/kg (invention) or 64 mg/kg (ester), 2.5 h at -14° C.
Experimental: as §1

Succinatedehydrogenase = experiment: Activity of succinatedehydrogenase in myocardium upon low-temperature treatment; type: in vivo, mice; conditions: 2.5 hours at -14° C.; 80 mg/kg (invention) or 64 mg/kg (ester); control 72.3 ± 1.6
Experimental: as §2

NADH2 --dehydrogenase = experiment: Activity of NADH2-dehydrogenase in myocardium upon low-temperature treatment; type: in vivo, mice; conditions: 2.5 hours at -14° C.; 80 mg/kg (invention) or 64 mg/kg (ester); control 69.8 ± 1.5
Experimental: as §2

SMILES: CN(C)CCOC(=O)CCC(=O)O [Butanedioic acid mono[(2-dimethylamino)ethyl ester]] [reference compound]
- Activity of NAD-Ph-H2-dehydrogenase in myocardium [1]: 76.4 ± 2.7 relative units
- Activity of glutamatedehydrogenase in myocardium (Glutamatedehydrogenase): 72.4 ± 0.6 relative units
- Activity of glucose-6-phosphatedehydrogenase in myocardium [2]: 60.2 ± 1.4 relative units
- stresso-protective activity compared with the compound of the invention ([3]; in words): far less pronounced
- Weight coefficient of thymus ([3]; 10 mg/kg i.p. four times (invention, ester), control 0.95 ± 0.18, 10 mg/kg): 1.08 g/kg of the initial body mass
- Weight coefficient of adrenal glands ([3]; 10 mg/kg i.p. four times (invention, ester), control 1.246 ± 0.028, 10 mg/kg): 1.42 g/kg of the initial body mass
- Number of attempts till reaching the learning criterion (water labyrinth) ([3]; 10 mg/kg i.p. four times (invention, ester), control 4.75 ± 0.5, 10 mg/kg): 4.10
- Number of ulcers on the stomach mucous membrane ([3]; 10 mg/kg i.p. four times (invention, ester), control 5.25 ± 1.0, 10 mg/kg): 4.2
- Duration of swimming ([3]; 10 mg/kg i.p. four times (invention, ester), control 244 ± 26, 10 mg/kg): 325 s
- Liver glycogen ([4]; control 8.1 ± 0.6, intact 35.2 ± 4.5): 6.7 ± 0.8 mg/kg
- Blood glucose ([4]; control 42 ± 4, intact 79 ± 3): 64 ± 2 mg. %
- Creatine phosphate ([4]; myocardium, control 1.2 ± 0.08, intact 3.7 ± 0.3): 1.4 ± 0.04 μm/g
- Activity of pyruvatedehydrogenase in myocardium (Pyruvatedehydrogenase): 62.6 ± 3.5 relative units
- Activity of isocitratedehydrogenase in myocardium (Isocitratedehydrogenase): 58.2 ± 1.4 relative units
- Survival, %, 1 hour ([5]; 1 hour of cold at -15 to -17° C.): 100%
- Survival, %, 2 hours ([5]; 2 hours of cold at -15 to -17° C.): 90%
- Survival, %, 3 hours ([5]; 3 hours of cold at -15 to -17° C.): 70%
- Survival, %, 4 hours ([5]; 4 hours of cold at -15 to -17° C.): 50%
- Survival, %, 5 hours ([5]; 5 hours of cold at -15 to -17° C.): 20%
- Survival, %, 6 hours ([5]; 6 hours of cold at -15 to -17° C.): 10%
- Lifespan in hours (at -17° C.), preliminary adaptation + preparation [6]: 6.2 ± 0.4 h
- Glycogen, heart ([7]; control 1.7 ± 0.2): 2.4 ± 0.2 mg/g
- Glycogen, liver ([7]; control 6.7 ± 0.4): 10.2 ± 2.7 mg/g
- Blood glucose ([7]; control 37 ± 6): 75 ± 4 mg. %
- Activity of succinatedehydrogenase in myocardium (Succinatedehydrogenase): 75.6 ± 2.4 relative units
- Activity of NADH2-dehydrogenase in myocardium (NADH2 --dehydrogenase): 70.8 ± 2.7 relative units
